According to US9625458B2, “Biosensor” (priority 2002, dated 2017):

Legend:
[1] = target: T1, E. coli glutamate/aspartate binding protein (YBEJ, SEQ ID NO:3) variant T129C, fluorophore conjugate (Escherichia coli, UniProt P37902, T129C); assay: Fluorimetric titration of fluorophore conjugates
T1 construct: The underlined methionine is the initiation codon for expression of YBEJ used in the study; initiation methionine (N); Gly-Ser-Gly-(His)n or Gly-Ser-(His)n (C); made in house; host or cells: E. coli BL21-DE3
From the text: (§1) Molecular Cloning. […] Amplified products were cloned into one of the protein expression vectors pAED4 (Doering, “Functional and structural studies of a small f-actin binding domain” in Ph.D. thesis, Massachusetts Institute of Technology, 1992); pKK223-3 (Brosius & Holy, Proc. Natl. Acad. Sci. USA 81:6929-6933, 1984); or pET vectors (Studier et al., Meth. Enzymol. 185:60-89, 1990) (Novagen). N-terminal oligonucleotide primers were designed to clone only the processed periplasmic form, deleting the signal sequence. The C-terminal primer was designed to append the sequence Gly-Ser-Gly-(His)n or Gly-Ser-(His)n, where n=5, 6, or 10. Two tandem stop codons (TAATGA) follow the last His codon. […] Single amino acid substitutions were generated by overlapping PCR mutagenesis (Ho et al., Gene 77:51-59, 1989). All clones and mutations were confirmed by nucleotide sequencing. In the case of arabinose BP, the single cysteine in the wild type sequence was replaced by alanine to eliminate the possibility of reporter group conjugation to this thiol (Miller et al., J. Biol. Chem. 254:7521-7528, 1979). Additionally the sequence of Fe(III) BP was mutated by substitution of Glu57 with Asp to raise the Kd to a concentration range conveniently measured using Fe(III) citrate.
(§2) Fluorophore conjugation to cysteine-substituted bPBPs. Thiol-reactive fluorophores obtained from Molecular Probes (Eugene, Oreg.) were 5-iodoacetamidofluorescein (fluorescein); N-(1-pyrene) iodoacetamide (pyrene); N,N′-dimethyl-N-(iodoacetyl)-N′-(7-nitrobenz-2-oxa-1,3-diazol-4-yl)ethylenediamide (NBD); N-((2-(iodoacetoxy)ethyl)-N-methyl)amino-7-nitrobenz-2-oxa-1,3-diazole (NBDE); and 6-acryloyl-2-dimethylaminonaphthalene (acrylodan). The styryl and naphthyl dyes JPW4039, JPW4042, and JPW4045 (FIG. 3) were synthesized at the University of Connecticut. All fluorophore conjugation steps were typically carried out at room temperature. To protein at a concentration of 100 μM was added tris-(2-carboxyethyl)phosphine HCl to a five-fold molar excess to reduce intermolecular disulfide bonds. A thiol-reactive fluorophore (20 to 25 mM in acetonitrile or dimethyl sulfoxide) was added in small aliquots to a five-fold molar excess over protein. Conjugation proceeded in the dark at room temperature for 4 hours, or overnight at 4° C. Separation of protein from unreacted fluorophore was achieved by exhaustive dialysis or by size-exclusion chromatography. The efficiency of reporter group attachment was assessed by determination of unreacted thiol with Ellman's reagent (Ellman, Arch. Biochem. Biophys. 74:443-450, 1958) or by measuring the ratio of fluorophore to protein from absorbance spectra of the purified conjugate.
(§3) Fluorimetry. All measurements were conducted with an SLM Aminco-Bowman series 2 fluorimeter, with sample stirring at 25° C. Fluorescence emission spectra were acquired with excitation and emission slit widths of 4 and 8 nm, respectively. Photomultiplier tube potential was maintained between 400 and 800 volts. Protein concentrations were in the range of 50 to 1000 nM. Fluorophore-specific excitation was at the following approximate wavelengths: tryptophan, 290 nm; acrylodan, 390 nm; fluorescein, 485 nm; pyrene, 340 nm; NBD and NBDE, 490 nm; JPW4039, 485 nm; JPW4042, 470 nm; JPW4045, 470 nm.
(§4) Corrections were made for dilution of the protein and for background signal from buffer. Binding curves were fit to binding isotherms using equation 3 or 4, as appropriate.
(§5) Analyte affinity measurements. […] The emission wavelength monitored was that of maximum difference in intensity between the ligand-free and bound states. For each conjugate, fluorescence intensiometric observations were fit to a hyperbolic binding isotherm for a two-state model (Marvin et al., Proc. Natl. Acad. Sci. USA 94:4366-4371, 1997): […]

[2] = target: T2, E. coli glutamate/aspartate binding protein (YBEJ, SEQ ID NO:3) variant Q123C, fluorophore conjugate (Escherichia coli, UniProt P37902, Q123C); assay: Fluorimetric titration of fluorophore conjugates
T2 construct: The underlined methionine is the initiation codon for expression of YBEJ used in the study; initiation methionine (N); Gly-Ser-Gly-(His)n or Gly-Ser-(His)n (C); made in house; host or cells: E. coli BL21-DE3
From the text: as §1, §2, §3, §4, §5

[3] = target: E. coli histidine binding protein (SEQ ID NO:2) variant V163C, fluorophore conjugate (Escherichia coli, UniProt P0AEU0, V185C); assay: biochemical
From the text: as §1, §2
(§6) Fluorimetry. All measurements were conducted with an SLM Aminco-Bowman series 2 fluorimeter, with sample stirring at 25° C. Fluorescence emission spectra were acquired with excitation and emission slit widths of 4 and 8 nm, respectively. Photomultiplier tube potential was maintained between 400 and 800 volts. Protein concentrations were in the range of 50 to 1000 nM. […]
as §5

[4] = target: E. coli histidine binding protein (SEQ ID NO:2) variant E167C, fluorophore conjugate (Escherichia coli, UniProt P0AEU0, E189C); assay: biochemical
From the text: as §1, §2, §6, §5

[5] = target: E. coli histidine binding protein (HBP, SEQ ID NO:2), fluorophore-conjugated cysteine mutants (Escherichia coli, UniProt P0AEU0); conditions: read-out: range of Kd; range over conjugates, n=4
From the text: (§7) Molecular Cloning. […] Amplified products were cloned into one of the protein expression vectors pAED4 (Doering, “Functional and structural studies of a small f-actin binding domain” in Ph.D. thesis, Massachusetts Institute of Technology, 1992); pKK223-3 (Brosius & Holy, Proc. Natl. Acad. Sci. USA 81:6929-6933, 1984); or pET vectors (Studier et al., Meth. Enzymol. 185:60-89, 1990) (Novagen). N-terminal oligonucleotide primers were designed to clone only the processed periplasmic form, deleting the signal sequence. The C-terminal primer was designed to append the sequence Gly-Ser-Gly-(His)n or Gly-Ser-(His)n, where n=5, 6, or 10. Two tandem stop codons (TAATGA) follow the last His codon. […] Additionally the sequence of Fe(III) BP was mutated by substitution of Glu57 with Asp to raise the Kd to a concentration range conveniently measured using Fe(III) citrate.
(§8) Fluorophore conjugation to cysteine-substituted bPBPs. […] The efficiency of reporter group attachment was assessed by determination of unreacted thiol with Ellman's reagent (Ellman, Arch. Biochem. Biophys. 74:443-450, 1958) or by measuring the ratio of fluorophore to protein from absorbance spectra of the purified conjugate.
(§9) Fluorimetry. […] Fluorescence emission spectra were acquired with excitation and emission slit widths of 4 and 8 nm, respectively. […]

[6] = target: T3, E. coli sulfate binding protein (SBP), fluorophore-conjugated cysteine mutants (Escherichia coli, UniProt P0AG78); assay: Ligand affinity of sulfate BP fluorescent conjugates (Kd range); conditions: range over conjugates, n=8
T3 construct: several single-Cys mutants with fluorophores
From the text: as §7
as §8, with “conjugate. […]” for “conjugate.”
as §9

[7] = target: T4, E. coli sulfate binding protein variant Q294C, fluorophore conjugate (Escherichia coli, UniProt P0AG78, Q313C); assay: Fluorimetric titration of fluorophore conjugates; conditions: JPW4042 conjugate, ligand sulfate
T4 construct: Gly-Ser-Gly-(His)n or Gly-Ser-(His)n, n=5, 6 or 10 (C); initiator methionine (N); made in house; host or cells: E. coli strain BL21-DE3
From the text: as §1, §2
(§10) Sulfate BP buffer (20 mM Tris-HCl, pH 8.0) was passed through the chloride form of Dowex 1X2-100 strongly basic anion-exchange resin. Sulfate BP solutions were treated by dialysis against treated buffer; Dowex resin held in a separate dialysis tube was also included.
as §3, §4
(§11) Analyte affinity measurements. […] The emission wavelength monitored was that of maximum difference in intensity between the ligand-free and bound states.

[8] = target: T5, E. coli sulfate binding protein variant L65C, fluorophore conjugate (Escherichia coli, UniProt P0AG78, L84C); assay: Fluorimetric titration of fluorophore conjugates; conditions: Fluorescein conjugate, ligand sulfate
T5 construct: Gly-Ser-Gly-(His)n or Gly-Ser-(His)n, n=5, 6 or 10 (C); initiator methionine (N); made in house; host or cells: E. coli strain BL21-DE3
From the text: as §1, §2, §10, §3, §4, §11

[9] = target: T6, E. coli sulfate binding protein variant W290C, fluorophore conjugate (Escherichia coli, UniProt P0AG78, W309C); assay: Fluorimetric titration of fluorophore conjugates; conditions: JPW4042 conjugate, ligand sulfate
T6 construct: Gly-Ser-Gly-(His)n or Gly-Ser-(His)n, n=5, 6 or 10 (C); initiator methionine (N); made in house; host or cells: E. coli strain BL21-DE3
From the text: as §1, §2, §10, §3, §4, §11

[10] = target: T7, E. coli sulfate binding protein variant R134C, fluorophore conjugate (Escherichia coli, UniProt P0AG78, R153C); assay: Fluorimetric titration of fluorophore conjugates
T7 construct: Gly-Ser-Gly-(His)n or Gly-Ser-(His)n, n=5, 6 or 10 (C); initiator methionine (N); made in house; host or cells: E. coli strain BL21-DE3
From the text: as §1, §2, §10, §3, §4, §11

NC(=O)CC[C@H](N)C(=O)O [glutamine]
Kd ([1]; T129C-JPW4039): 23000 nM
Kd ([1]; T129C-NBD): 12100 nM
Kd [2]: 49000 nM

N[C@@H](Cc1c[nH]cn1)C(=O)O [histidine]
Kd ([3]; Acrylodan conjugate, peristeric site): 400 nM
Kd ([3]; JPW4042 conjugate, peristeric site): 250 nM
Kd ([3]; NBD conjugate, peristeric site): 2370 nM
Kd ([3]; V163C-JPW4042): 250 nM
Kd [4]: 60 nM
Kd [5]: 60 to 2370 nM

O=S(=O)(O)O [sulfate]
Kd [6]: 320 to 29000 nM
Kd [7]: 830 nM
Kd [8]: 1090 nM
Kd [9]: 336 nM
Kd ([10]; Acrylodan conjugate, R134C, ligand sulfate): 4170 nM
Kd ([10]; Fluorescein conjugate, R134C, ligand sulfate): 323 nM
Kd ([10]; JPW4039 conjugate, R134C, ligand sulfate): 7500 nM
Kd ([10]; JPW4042 conjugate, R134C, ligand sulfate): 29100 nM
Kd ([10]; NBD conjugate, R134C, ligand sulfate): 22400 nM
Kd ([10]; R134C-acrylodan): ~4000 nM
